In patent US20180066070A1, “ACETYLATED PCSK9” (UNIVERSITAT ZURICH, priority 2015, published 2018):

Experiments:
[1] = target: T1, SIRT1 (Mus musculus, UniProt Q923E4); conditions: ApoE-/- mice; cited from earlier work
T1 construct: host or cells: ApoE-/- mice (endogenous protein of the animal)
T1 sequence (Q923E4 1-737): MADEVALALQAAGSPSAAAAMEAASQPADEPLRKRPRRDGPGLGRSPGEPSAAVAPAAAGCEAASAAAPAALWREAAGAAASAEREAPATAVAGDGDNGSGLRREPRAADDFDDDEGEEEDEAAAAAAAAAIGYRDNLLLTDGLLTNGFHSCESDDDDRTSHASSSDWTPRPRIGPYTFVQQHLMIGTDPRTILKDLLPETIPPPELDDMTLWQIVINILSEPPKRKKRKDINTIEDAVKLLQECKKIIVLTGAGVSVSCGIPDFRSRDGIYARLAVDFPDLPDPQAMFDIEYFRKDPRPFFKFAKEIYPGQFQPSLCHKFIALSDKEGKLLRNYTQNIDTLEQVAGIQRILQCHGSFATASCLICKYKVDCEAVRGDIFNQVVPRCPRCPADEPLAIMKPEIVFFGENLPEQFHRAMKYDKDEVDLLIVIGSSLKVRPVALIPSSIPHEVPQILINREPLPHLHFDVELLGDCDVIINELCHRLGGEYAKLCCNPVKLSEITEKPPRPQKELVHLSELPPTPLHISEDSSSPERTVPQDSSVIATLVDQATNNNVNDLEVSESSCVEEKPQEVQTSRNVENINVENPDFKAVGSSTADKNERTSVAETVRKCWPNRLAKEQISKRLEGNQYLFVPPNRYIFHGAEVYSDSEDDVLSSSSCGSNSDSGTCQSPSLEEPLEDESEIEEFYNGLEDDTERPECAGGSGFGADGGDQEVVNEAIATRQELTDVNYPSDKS

[2] = target: T2, SIRT1 (Homo sapiens, UniProt Q96EB6); experiment: Fluorogenic peptide deacetylation assay; type: biochemical; conditions: increasing concentrations of SRT1720 (1 μM, 10 μM, 100 μM, 1 mM), 1 μg SIRT1, acetyl-Lys421 PCSK9-AMC peptide, compared to negative and positive controls (FIG. 4)
T2 sequence (Q96EB6 1-747): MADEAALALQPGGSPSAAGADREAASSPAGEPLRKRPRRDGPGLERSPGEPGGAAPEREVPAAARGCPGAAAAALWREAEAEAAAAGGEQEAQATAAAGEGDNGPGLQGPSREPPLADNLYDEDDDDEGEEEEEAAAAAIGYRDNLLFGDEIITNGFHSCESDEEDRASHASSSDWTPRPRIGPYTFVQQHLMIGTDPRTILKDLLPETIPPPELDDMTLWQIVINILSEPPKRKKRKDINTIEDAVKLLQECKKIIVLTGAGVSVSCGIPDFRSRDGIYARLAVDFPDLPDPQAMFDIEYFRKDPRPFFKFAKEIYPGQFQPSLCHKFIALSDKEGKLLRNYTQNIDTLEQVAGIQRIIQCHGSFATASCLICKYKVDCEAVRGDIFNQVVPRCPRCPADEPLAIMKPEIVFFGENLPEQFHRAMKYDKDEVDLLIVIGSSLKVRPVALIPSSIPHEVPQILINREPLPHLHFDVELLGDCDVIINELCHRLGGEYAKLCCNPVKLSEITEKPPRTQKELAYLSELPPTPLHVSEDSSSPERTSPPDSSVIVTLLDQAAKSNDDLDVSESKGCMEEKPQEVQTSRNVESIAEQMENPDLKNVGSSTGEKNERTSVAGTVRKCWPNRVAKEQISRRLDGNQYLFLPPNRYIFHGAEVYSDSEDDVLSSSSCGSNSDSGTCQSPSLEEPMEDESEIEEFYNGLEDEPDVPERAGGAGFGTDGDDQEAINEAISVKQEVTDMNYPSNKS
Method: To analyse the deacetylation activity of SIRT1 on PCSK9, an acetylated PCSK9 peptide was designed with acetylated lysine 421 (Lys421)-tagged to an AMC fluorophore. The acetyl-PCSK9-AMC peptide was dissolved in DMSO and incubated with 1 μg SIRT1 with 1 μM, 10 μM, 100 μM and 1 mM SIRT1 activator SRT1720 in the deacetylation assay buffer containing 50 mM Tris-HCl [pH8.0], 1 mM MgCl2, 125 mM NaCl, 2.5 mM potassium chloride and 500 μM NAD+. Reactions were allowed to proceed for an incubation period of 1 hr at 37° C. Prior to quenching the reaction, 2 mM nicotinamide was added to 1× developing buffer (BML-KI176-1250, Enzo Lifesciences) in the deacetylation assay buffer (50 mM Tris-HCl [pH8.0], 1 mM MgCl2, 125 mM NaCl, 2.5 mM potassium chloride). At each time point, 50 μL of the reaction was removed and mixed with 50 μL of the developer solution. The quenched samples were kept at 37° C. for 45 min prior to fluorescence reading. The release of the fluorescent AMC was measured using a Tecan M200 PRO fluorometric plate reader with an excitation 360 nm and detection of emitted light in the range of […]. All reactions were normalized to control reactions in the absence of β-NAD (Ffinal=F+NAD−F-NAD).

[3] = test system: RAW 264.7 macrophages; experiment: Activity of acetylated vs deacetylated recombinant PCSK9 on RAW 264.7 macrophages (western blot for LDLR, PCSK9); type: cell-based, murine; conditions: recombinant PCSK9 pretreated with pCAF and acetyl-CoA vs SIRT1 and NAD+, 15 mins (FIG. 7)
Method: Recombinant PCSK9 pretreated with SIRT1 and NAD+ or pCAF and acetyl-CoA were added on RAW 264.7 macrophages for 15 mins and lysed, separated by SDS-PAGE and blotted for LDLR, PCSK9 and b-actin. Representative bar graphs of LDLR, PCSK9 normalized to b-actin and PCSK9 expression normalized to LDLR expression.
Human HepG2 hepatocytes (American Type Culture Collection, Manassas, Va.) and murine RAW 264.7 cells (Mouse leukaemic monocyte macrophage cell line) were cultured in DMEM containing 10% fetal bovine serum (v/v). AML12 mouse hepatoma cells were cultured in a 1:1 (v/v) mixture of DMEM and Ham's F12 medium supplemented with insulin (5 μg ml-1), transferrin (5 μg ml-1), selenium (5 ng ml-1), dexamethasone (40 ng ml-1), and 10% fetal bovine serum (v/v). Where indicated, AML12 cells were exposed to 10 μM SRT3025 in 1% DMSO (v/v). The cells were maintained in a humidified atmosphere with 5% CO2 at 37° C.
Substrate protein, PCSK9 was incubated with 2 μg of recombinant pCAF and 50 μM acetyl-CoA in 20 μL of acetylation buffer (250 mM Tris-HCl [pH9.0], 20 mM MgCl2, 250 mM NaCl, 2.5 mM DTT). Reaction mixtures were incubated at 37° C. for 1 hour. Reaction was stopped by freezing. […] The reactions were analyzed by western blotting using anti-PCSK9 antibody (Abcam) to verify loading and anti-acetyl lysine (Cell signalling) to verify acetylation.

Question: Which results are given for `COCCCc1sc(-c2ccccc2)nc1C(=O)Nc1ccccc1-c1nc2cc(CN3CCCC3)cnc2s1` [SRT3025]?
Answer: LDL-cholesterol [1]: reducing LDL-cholesterol; PCSK9 secretion [1]: reduction in PCSK9 secretion; atherosclerosis [1]: protects against atherosclerosis

Question: For `O=C(Nc1ccccc1-c1cn2c(CN3CCNCC3)csc2n1)c1cnc2ccccc2n1` [SRT1720], which “fluorescence caused by deacetylation of fluorogenic PCSK9 peptide” value [2] is on record?
Answer: increase in fluorescence

Question: With “acetyl-PCSK9: Recombinant PCSK9 pretreated with pCAF and acetyl-CoA” as the compound, how does the “activity of PCSK9 (LDLR, PCSK9 expression normalized to b-actin)” value [3] read?
Answer: more active
